Read-outs that look alike come from different tables or passages of the source.
Assays:
Vero cells = assay: Cytotoxicity by CPE assay in Vero cells; format: cell-based; conditions: 72 h
Experimental: (§1) The cytotoxicity was evaluated by cytopathic effect (CPE) inhibition assay. Vero cells were seeded into 96-well plates. After cells had been incubated for 24 h at 37 °C in 5% CO2, they were exposed to drugs with two-fold serial dilutions. Untreated Vero cells were used as controls. All cultures were incubated again in 5% CO2 at 37 °C for 72 h. The cells were examined microscopically for the cytotoxicity effects. Then TC50 were calculated by the Reed-Muench method.

MDCK cells = assay: Cytotoxicity against MDCK cells by CPE assay; format: cell-based
Experimental: as §1
The procedures for Anti-H3N2 studies and cytotoxicity against MDCK cells in vitro by CPE inhibition assay were similar to Anti HSV-1 studies and cytotoxicity against Vero cells.

influenza virus H3N2 = assay: Anti-H3N2 CPE inhibition assay in MDCK cells; conditions: for IC50: read-out: IC50, antiviral activity against H3N2 virus; for antiviral activity against influenza virus H3N2 (in words): in vitro
HSV-1 virus = assay: Anti HSV-1 CPE inhibition assay in Vero cells; conditions: for IC50: read-out: IC50, antiviral activity against HSV-1 virus; for antiviral activity against HSV-1 (in words): in vitro
[1] = tested on: abdominal capillary permeability; conditions: cited from earlier work
H1N1 = conditions: previous study; cited from earlier work
[2] = cytotoxicity, Vero cells, Reed-Muench method
[3] = Human alphaherpesvirus 1, Vero, 72 h

| Compound | TC50 (Antiviral activity against HSV-1 virus section) (Vero cells; [2]) | TC50 (Antiviral activity against H3N2 virus section) (MDCK cells) | IC50 (influenza virus H3N2; Influenza A virus, H3N2, MDCK) | antiviral activity against influenza virus H3N2 (in words) (influenza virus H3N2; CPE inhibition) | IC50 (HSV-1 virus; [3]) | antiviral activity against HSV-1 (in words) (HSV-1 virus; CPE inhibition) | TI (TC50/IC50), H3N2 virus (influenza virus H3N2) | effect on increase of abdominal capillary permeability by HAc [1] | IC50 (influenza virus H3N2; CPE inhibition, MDCK cells) | IC50 (HSV-1 virus; CPE inhibition, Vero cells, 30 TCID50, 72 h) | therapeutic effect on the H1N1 infected mice (H1N1) | TI (TC50/IC50), HSV-1 virus (HSV-1 virus) | TC50 (Antiviral activity against HSV-1 virus section) (Vero cells; African green monkey) |
| --- | --- | --- | --- | --- | --- | --- | --- | --- | --- | --- | --- | --- | --- |
| CC1=C2CC[C@@H](C)C[C@]2(OC(=O)c2cccc(Br)c2)OC1=O [M31, (6R,7aS)-3,6-Dimethyl-2-Oxo-2,4,5,6,7,7a-Hexahydrobenzofuran-7a-yl 3-Bromobenzoate] | 80.3 µM | 80.3 µM | > 39.1 µM | little effect | > 11.5 µM | little effect | – | – | – | – | – | – | – |
| CC1=C2CC[C@@H](C)C[C@]2(OC(=O)c2cccc(F)c2)OC1=O [M28, (6R,7aS)-3,6-Dimethyl-2-Oxo-2,4,5,6,7,7a-Hexahydrobenzofuran-7a-yl 3-Fluorobenzoate] | 170.4 µM | 96.4 µM | 34.5 µM | high antiviral activity | > 11.5 µM | – | 2.8 | – | – | – | – | – | – |
| CC1=C2CC[C@@H](C)C[C@]2(OC(=O)c2ccc(I)cc2)OC1=O [M10, (6R,7aS)-3,6-Dimethyl-2-Oxo-2,4,5,6,7,7a-Hexahydrobenzofuran-7a-yl 4-Iodobenzoate] | 44.2 µM | 41.3 µM | > 39.1 µM | little effect | > 11.5 µM | – | – | – | – | – | – | – | – |
| CO[C@@]12C[C@H](C)CCC1=C(C)C(=O)O2 [M1, (6R,7aR)-7a-Methoxy-3,6-Dimethyl-5,6,7,7a-Tetrahydrobenzofuran-2(4H)-One] | 366.8 µM | 298.5 µM | > 39.1 µM | – | > 11.5 µM | – | – | – | – | – | – | – | – |
| CC1=C2CC[C@@H](C)C[C@@]2(O)OC1=O [Schizonepetin] | 834.2 µM | 829.4 µM | – | low antiviral activity | – | low antiviral activity | – | inhibit the increase of abdominal capillary permeability | > 39.1 µM | > 11.5 µM | obviously positive therapeutic effect | – | – |
| CC1=C2CC[C@@H](C)C[C@@]2(OC(=O)c2cccnc2)OC1=O [M21, (6R,7aS)-3,6-Dimethyl-2-Oxo-2,4,5,6,7,7a-Hexahydrobenzofuran-7a-yl Nicotinate] | 439.0 µM | 180.5 µM | > 39.1 µM | – | > 11.5 µM | – | – | – | – | – | – | – | – |
| CC1=C2CC[C@@H](C)C[C@@]2(OC(=O)c2cccs2)OC1=O [M27, (6R,7aS)-3,6-Dimethyl-2-Oxo-2,4,5,6,7,7a-Hexahydrobenzofuran-7a-yl Thiophene-2-Carboxylate] | 100.3 µM | 177.4 µM | > 39.1 µM | – | > 11.5 µM | – | – | – | – | – | – | – | – |
| CC1=C2CC[C@@H](C)C[C@]2(OC(=O)c2ccc(F)cc2)OC1=O [M22, (6R,7aS)-3,6-Dimethyl-2-Oxo-2,4,5,6,7,7a-Hexahydrobenzofuran-7a-yl 4-Fluorobenzoate] | 87.8 µM | 60.5 µM | > 39.1 µM | little effect | > 11.5 µM | – | – | – | – | – | – | – | – |
| CC1=C2CC[C@@H](C)C[C@]2(OC(=O)c2ccc(Cl)cc2)OC1=O [M11, (6R,7aS)-3,6-Dimethyl-2-Oxo-2,4,5,6,7,7a-Hexahydrobenzofuran-7a-yl 4-Chlorobenzoate] | 47.1 µM | 47.1 µM | > 39.1 µM | little effect | > 11.5 µM | – | – | – | – | – | – | – | – |
| CC1=C2CC[C@@H](C)C[C@]2(OC(=O)c2ccc(Br)cc2)OC1=O [M33, (6R,7aS)-3,6-Dimethyl-2-Oxo-2,4,5,6,7,7a-Hexahydrobenzofuran-7a-yl 4-Bromobenzoate] | 80.3 µM | 71.0 µM | 13.7 µM | high antiviral activity | > 11.5 µM | little effect | 5.2 | – | – | – | – | – | – |
| CC1=C2CC[C@@H](C)C[C@@]2(OC(=O)c2ccc(C(F)(F)F)cc2)OC1=O [M35, (6R,7aS)-3,6-Dimethyl-2-Oxo-2,4,5,6,7,7a-Hexahydrobenzofuran-7a-yl 4-(Trifluoromethyl) Benzoate] | 82.8 µM | 75.4 µM | 29.7 µM | high antiviral activity | > 11.5 µM | – | 2.5 | – | – | – | – | – | – |
| CCC(=O)O[C@@]12C[C@H](C)CCC1=C(C)C(=O)O2 [M5, (6R,7aR)-3,6-Dimethyl-2-oxo-2,4,5,6,7,7a-Hexahydrobenzofuran-7a-yl Propionate] | 66.0 µM | 39.1 µM | > 39.1 µM | – | 26.9 µM | obvious antiviral activity | – | – | – | – | – | 2.5 | – |
| CC1=C2CC[C@@H](C)C[C@]2(OC(=O)c2ccccc2)OC1=O [M8, (6R,7aS)-3,6-Dimethyl-2-Oxo-2,4,5,6,7,7a-Hexahydrobenzofuran-7a-yl Benzoate] | 24.8 µM | 54.2 µM | > 39.1 µM | – | > 11.5 µM | – | – | – | – | – | – | – | – |
| CC(=O)O[C@@]12C[C@H](C)CCC1=C(C)C(=O)O2 [M4, (6R,7aR)-3,6-Dimethyl-2-oxo-2,4,5,6,7,7a-Hexahydrobenzofuran-7a-Yl Acetate] | 374.6 µM | 319.2 µM | > 39.1 µM | – | 93.8 µM | obvious antiviral activity | – | – | – | – | – | 4.0 | – |
| Nc1nc2c(ncn2COCCO)c(=O)[nH]1 [Aciclovir, reference compound] | – | – | – | – | 4.9 µM | – | – | – | – | – | – | >136.4 | >666.0 µM |
| CC1=C2CC[C@@H](C)C[C@]2(OC(=O)c2cccc(Cl)c2)OC1=O [M25, (6R,7aS)-3,6-Dimethyl-2-Oxo-2,4,5,6,7,7a-Hexahydrobenzofuran-7a-yl 3-Chlorobenzoate] | 11.5 µM | 80.8 µM | > 39.1 µM | little effect | > 11.5 µM | – | – | – | – | – | – | – | – |
| CC1=C2CC[C@@H](C)C[C@]2(OC(=O)c2ccc([N+](=O)[O-])cc2)OC1=O [M9, (6R,7aS)-3,6-Dimethyl-2-Oxo-2,4,5,6,7,7a-Hexahydrobenzofuran-7a-yl 4-Nitrobenzoate] | 216.0 µM | 216.0 µM | > 39.1 µM | – | > 11.5 µM | – | – | – | – | – | – | – | – |
| CC1=C2CC[C@@H](C)C[C@]2(OC(=O)c2cccc(I)c2)OC1=O [M29, (6R,7aS)-3,6-Dimethyl-2-oxo-2,4,5,6,7,7a-Hexahydrobenzofuran-7a-yl 3-Iodobenzoate] | 45.4 µM | 71.1 µM | > 39.1 µM | little effect | > 11.5 µM | – | – | – | – | – | – | – | – |
| NC(=O)c1ncn([C@@H]2O[C@H](CO)[C@@H](O)[C@H]2O)n1 [Ribavirin, reference compound] | – | – | 1020 µM | – | – | – | – | – | – | – | – | – | – |
| CC1=C2CC[C@@H](C)C[C@@]2(OC(=O)c2ccccc2Br)OC1=O [M34, (6R,7aS)-3,6-Dimethyl-2-Oxo-2,4,5,6,7,7a-Hexahydrobenzofuran-7a-yl 2-Bromobenzoate] | 80.3 µM | 71.0 µM | > 39.1 µM | little effect | 17.1 µM | obvious antiviral activity | – | – | – | – | – | 4.7 | – |
| CCO[C@@]12C[C@H](C)CCC1=C(C)C(=O)O2 [M2, (6R,7aR)-7a-Ethoxy-3,6-Dimethyl-5,6,7,7a-Tetrahydrobenzofuran-2(4H)-One] | 246.7 µM | 139.5 µM | > 39.1 µM | – | 100 µM | obvious antiviral activity | – | – | – | – | – | 2.5 | – |

Reference: publication PMC3759959, “Design, Synthesis and Antiviral Activity Studies of Schizonepetin Derivatives” (International Journal of Molecular Sciences, 2013)
